Measured values taken from patent US4512976A, “Antibiotic stubomycin and process for the production thereof” (The Kitasato Institute, priority 1980, dated 1985).
Values after ≈ are worked out from the molar mass of the structure shown.

Tests used:
leukemia P388 = assay: Antitumor activity on leukemia P388; details: i.p.; for ILS (Increased life span) P388: vs untreated control
[1] = test system: Bacillus subtilis PCI 219; assay: Antimicrobial activity, MIC by agar dilution method; format: cell-based; details: Bacillus subtilis PCI 219, agar dilution method
Alternaria kikuchiana = assay: as above; format: cell-based
Microsporum gypseum = assay: as above; format: cell-based
Piricularia oryzae = format: cell-based
Sarcina lutea ATCC 1001 = assay: Antimicrobial activity, MIC by agar dilution method; format: cell-based; details: Sarcina lutea ATCC 1001, agar dilution method
[2] = test system: Staphylococcus aureus FDA-209P; assay: as above; format: cell-based
Xanthomonas oryzae = format: cell-based; details: agar dilution method
Saccharomyces sake = assay: Antimicrobial activity, MIC by agar dilution method; format: cell-based
Candida albicans = assay: as above; format: cell-based
[3] = test system: Ehrlich ascites carcinoma; assay: Antitumor activity on Ehrlich ascites carcinoma; details: i.p.; for ILS (Increased life span) Ehrlich: vs untreated control
Mycobacterium smegmatis = assay: Antimicrobial activity, MIC by agar dilution method; format: cell-based
Escherichia coli NIHJ = assay: as above; format: cell-based
mice = assay: Acute toxicity in mice; format: in vivo
Description: Acute toxicity (LD50) in mice; approximately 400 mg/kg (i.p.), and over 1000 mg/kg (p.o.)

[4] = test system: Trichophyton interdigitalis; assay: Antimicrobial activity, MIC by agar dilution method; format: cell-based
Pseudomonas aeruginosa = assay: as above; format: cell-based
Aspergillus niger = assay: as above; format: cell-based
[5] = Day 1, 75 mg/kg/day, total 75 mg/kg
[6] = Day 1, 150 mg/kg/day, total 150 mg/kg
[7] = Day 1, 300 mg/kg/day, total 300 mg/kg
[8] = Days 1, 5, 9, 25 mg/kg/day, total 75 mg/kg
[9] = Days 1, 5, 9, 50 mg/kg/day, total 150 mg/kg
[10] = Days 1~9, 8.8 mg/kg/day, total 75 mg/kg
[11] = Days 1~9, 16.7 mg/kg/day, total 150 mg/kg
[12] = Days 1~9, 33.3 mg/kg/day, total 300 mg/kg

CO[C@H]1C[C@@H]2\C=C(C)/C=C/C=C\C(=O)N[C@H](c3ccccc3)C/C=C/CC[C@H](O)CC(=O)C2=C1O [stubomycin]
MSD (Median survival day) P388 (leukemia P388; [5]): 17 days
ILS (Increased life span) P388 (leukemia P388; [5]): 42%
MSD (Median survival day) P388 (leukemia P388; [6]): 17 days
ILS (Increased life span) P388 (leukemia P388; [6]): 42%
MSD (Median survival day) P388 (leukemia P388; [7]): 17 days
ILS (Increased life span) P388 (leukemia P388; [7]): 42%
MSD (Median survival day) P388 (leukemia P388; [8]): 16 days
ILS (Increased life span) P388 (leukemia P388; [8]): 33%
MSD (Median survival day) P388 (leukemia P388; [9]): 15 days
ILS (Increased life span) P388 (leukemia P388; [9]): 25%
MSD (Median survival day) P388 (leukemia P388; [10]): 15 days
ILS (Increased life span) P388 (leukemia P388; [10]): 25%
MSD (Median survival day) P388 (leukemia P388; [11]): 11 days
ILS (Increased life span) P388 (leukemia P388; [11]): -8%
MSD (Median survival day) P388 (leukemia P388; [12]): 9 days
ILS (Increased life span) P388 (leukemia P388; [12]): -25%
Minimum inhibitory concentration (MIC) [1]: 0.4 µg/mL (≈ 0.838 µM)
Minimum inhibitory concentration (MIC) (Alternaria kikuchiana): 6.3 µg/mL (≈ 13.2 µM)
Minimum inhibitory concentration (MIC) (Microsporum gypseum): 12.5 µg/mL (≈ 26.2 µM)
Minimum inhibitory concentration (MIC) (Piricularia oryzae): 3.1 µg/mL (≈ 6.49 µM)
Minimum inhibitory concentration (MIC) (Sarcina lutea ATCC 1001): 0.4 µg/mL (≈ 0.838 µM)
Minimum inhibitory concentration (MIC) [2]: 3.1 µg/mL (≈ 6.49 µM)
Minimum inhibitory concentration (MIC) (Xanthomonas oryzae): > 100 µg/mL
Minimum inhibitory concentration (MIC) (Saccharomyces sake): > 200 µg/mL
Minimum inhibitory concentration (MIC) (Candida albicans): > 100 µg/mL
MSD (Median survival day) Ehrlich [3, 5]: 28 days
Number of cured mice, Ehrlich [3, 5]: 1
ILS (Increased life span) Ehrlich [3, 5]: 47%
MSD (Median survival day) Ehrlich [3, 6]: 51 days
ILS (Increased life span) Ehrlich [3, 6]: 168%
MSD (Median survival day) Ehrlich [3, 7]: 21 days
ILS (Increased life span) Ehrlich [3, 7]: 11%
MSD (Median survival day) Ehrlich [3, 8]: 33 days
Number of cured mice, Ehrlich [3, 8]: 1
ILS (Increased life span) Ehrlich [3, 8]: 74%
MSD (Median survival day) Ehrlich [3, 9]: 16 days
ILS (Increased life span) Ehrlich [3, 9]: -16%
ILS (Increased life span) Ehrlich [3, 10]: 11%
MSD (Median survival day) Ehrlich [3, 11]: 50 days
Number of cured mice, Ehrlich [3, 11]: 1
ILS (Increased life span) Ehrlich [3, 11]: 163%
MSD (Median survival day) Ehrlich [3, 12]: 33 days
Number of cured mice, Ehrlich [3, 12]: 1
ILS (Increased life span) Ehrlich [3, 12]: 74%
MSD (Median survival day) Ehrlich ([3]; Days 1~9, total 75 mg/kg): 21 days
Minimum inhibitory concentration (MIC) (Mycobacterium smegmatis): 3.1 µg/mL (≈ 6.49 µM)
Minimum inhibitory concentration (MIC) (Escherichia coli NIHJ): > 200 µg/mL
Acute toxicity (LD50) (mice; i.p.): approximately 400 mg/kg
Acute toxicity (LD50) (mice; p.o.): over 1000 mg/kg
Minimum inhibitory concentration (MIC) [4]: 6.3 µg/mL (≈ 13.2 µM)
Minimum inhibitory concentration (MIC) (Pseudomonas aeruginosa): > 200 µg/mL
Minimum inhibitory concentration (MIC) (Aspergillus niger): > 100 µg/mL
